# Assay results taken from US12247033B2, “Triazole-substituted imidazo[1,2-a]pyrimidines as cGAS inhibitors” (GlaxoSmithKline Intellectual Property Development Limited, priority 2022, dated 2025).
# Counter-ions that a name gives are not always drawn.
# Key:
# [1] = molecular target: human CGAS (157-522) (Homo sapiens, UniProt Q8N884); test: biochemical;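 further: biochemical enzyme reaction, 2′3′-cGAMP product measured by RapidFire mass spectrometry (MRM) normalised to c-di-UMP internal standard, inhibition of product formation relative to high and low control wells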
# Sequence of human CGAS (157-522) (Q8N884 157-522): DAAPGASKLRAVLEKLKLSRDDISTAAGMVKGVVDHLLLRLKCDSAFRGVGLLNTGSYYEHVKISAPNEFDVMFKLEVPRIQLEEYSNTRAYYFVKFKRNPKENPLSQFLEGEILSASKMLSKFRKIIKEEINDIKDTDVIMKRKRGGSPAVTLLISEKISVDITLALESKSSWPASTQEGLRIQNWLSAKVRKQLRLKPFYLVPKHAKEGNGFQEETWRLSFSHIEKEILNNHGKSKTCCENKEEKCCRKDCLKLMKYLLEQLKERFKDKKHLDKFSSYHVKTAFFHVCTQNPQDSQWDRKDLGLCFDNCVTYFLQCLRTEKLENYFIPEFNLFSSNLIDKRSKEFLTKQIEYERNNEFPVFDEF
# Protocol: Compounds were serially diluted 2, 3, or 4-fold in neat DMSO to generate 11-point dose response curves and then 250 nL compound or DMSO solution was transferred to Greiner 384-well V-bottom assay plates (Catalog #781280) using an Echo acoustic dispenser (Labcyte). A solution of 150 μM ATP, 150 μM GTP, 20 μM pppGpA (GTP-2′5′-AMP, custom synthesis from ChemGenes), and 10 μg/mL sheared salmon sperm DNA (Sigma, Catalog #D1626) in assay buffer (20 mM Trizma, pH 7.5, 10 mM magnesium chloride, 0.3 mM CHAPS, and 0.01% (w/v) bovine serum albumin) was added to columns 1-17, 19-24 of the plate at 12.5 μL/well using a Combi liquid handler (ThermoFisher). A 12.5 μL/well low control solution containing 150 μM ATP, 150 μM GTP, 20 μM pppGpA in assay buffer was added to column 18 using the Combi. A 12.5 μL/well solution of 10-100 nM human CGAS (157-522) in assay buffer was then added to all wells of the plate using the Combi. […] Reactions were quenched by added 50 μL/well of 0.5% (v/v) trifluoroacetic acid (TFA) in mass spectrometry grade deionized water containing 5 μM cyclic-di-UMP (ci-di-UMP; Invivogen Catalog #tlrl-cdu) as the internal standard (IS). Plates were centrifuged for 1 min and then quenched reactions were analyzed using a RF-MS 300 system operating in a Multiple Reaction Monitoring (MRM) detection mode.
# Samples (10 μL injection volume) were passed over a silica C18/type C solid phase extraction (SPE) cartridge for analyte (2′3′-cyclic guanosine monophosphate adenosine monophosphate (2′3′-cGAMP), product of biochemical reaction)/pppGpA/c-di-UMP IS adsorption. Adsorbed samples were desalted for 3000 ms using a 100% water eluent A/desalting solution. Afterwards, desalted samples were eluted using a 0.5% TFA in 20%/80% acetonitrile/water eluent B/elution solution directly into either a Sciex 4000, 5000 or 5500 triple quadrupole mass spectrometer (QQQ-MS) for MRM analyte/IS detection. QQQ-MS detection conditions were as follow: scan type: MRM; curtain (CUR) gas: 30 psi; nebulizer (GS1) gas: 50 psi; drying (GS2) gas: 60 psi; collisionally activated dissociation (CAD) gas: 12 relative setting; precursor ion (Q1) masses: 2′3′-cGAMP: m/z 675.1 Da/pppGpA: m/z 853.0 Da/c-di-UMP: m/z 613.1 Da; fragment ion (Q3) masses: 2′3′-cGAMP: m/z 524.1 Da/pppGpA: m/z 702.0 Da/c-di-UMP: 307.1 Da; declustering potentials (DPs): 2′3′-cGAMP: +81 V/pppGpA: +85 V/c-di-UMP: +85 V; entrance potential: +10 V (all analytes); collision energies (CEs): 2′3′-cGAMP: +33 V/pppGpA: +36 V/c-di-UMP: +35 V; collision cell exit potential (CXP): +10 V (all analytes); interface heater (Sciex 4000/5000 only): on; Q1 resolution: unit (all analyte); Q3 resolution: unit (all analytes). The area under the curve (AUC) for all analytes was obtained using the RapidFire Integrator software application to calculate AUC-2′3′-cGAMP/AUC-c-di-UMP intensity ratio. Percent product formation was calculated by comparison to column 6 (high control)/column 18 (low control) responses. The % product inhibition was calculated as follows:
# [formula] where A is the minimum response, B is the maximum response, C is the log10*XC50, D is the slope factor, and x is the log10 compound concentration [M] in ABASE XE.
# [2] = test system: CGAS; test: CGAS whole blood cytokine release assay (384-well, BacMam stimulation, IP-10 by cytometric bead array); assay type: cell-based; details: Homo sapiens, 6 h; read-out: hWB pXC50 (converted)
# Protocol: Blood collection: Blood was collected in a tube containing 10% Sodium Heparin (5 ml/45 ml blood final).
# Protocol for CGAS Whole Blood Cytokine Release Assay: Compounds serial diluted at 1:3 were provided at 150 nL per well, in a 384 well polypropylene microplate (cat. 781280; Greiner Bio-One, Frickenhausen, Germany). 5 μL of PBS/20% Null BacMam was dispensed to all wells except for column 18 on a Multidrop Combi (Thermo Scientific, Waltham, MA). 5 uL of PBS was dispensed into column 18. The Bravo (Agilent, Santa Clara, CA) was used to transfer 45 uL of donor derived blood into the compound plates. The Bravo protocol mixed the blood and compound/PBS 5 times. The plates were incubated at 37° C., 5% CO2, for 6 hours. At the 6 hour mark the plates were removed and centrifuged for 10 minutes at 3000 RPM. 3 uL of supernatant was transferred from the plate to a 384 well NBS microplate (cat. 4513; Corning Life Sciences, Corning, NY). These plates were sealed with adhesive foil and stored in a −80 freezer until ready for analysis.
# For cytokine detection, Human IP-10 BD cytometric bead array (CBA) beads (BD Biosciences, Franklin Lakes, NJ) were used. Capture bead solution was prepared by performing a 1:50 dilution of the IP-10 capture bead stock solution in BD diluent for serum/plasma (cat. 51-9003991 BD Biosciences, Franklin Lakes, NJ). 2 μL of this solution was added per well to the assay microplates which were then sealed with adhesive foil and incubated at room temperature for 2 h in the dark. Detection reagent was further prepared by performing a 1:50 dilution of the detection reagent stock solution. 2 μL of detection reagent was added per well and microplates were sealed with adhesive foil and incubated at room temperature in the dark for 1 h. After the 1 h incubation 3 uL of BD CBA wash buffer was added per well of the microplates. Data were acquired on an iQue Screener flow cytometer. The iQue used fluorescence detection to quantify the inhibition of IP-10 present in the sample wells. A sip time of 1 second per sample was used. The blue laser with excitation of 488 nm and emission filters 585/40 nm were used to capture the mean and median of IP-10 with the detector in logarithmic mode (FL2-H).
# All data analysis was carried out in IDBS ActivityBase XE.
SMILES,IC50 [1],IC50 [2]
"FC(F)(F)c1ccn2c(-c3cnc[nH]3)c(-c3nc(C(F)(F)F)n[nH]3)nc2n1 [Example 3, 5-[3-(1H-imidazol-5-yl)-7-(trifluoromethyl)imidazo[1,2-a]pyrimidin-2-yl]-3-(trifluoromethyl)-1H-1,2,4-triazole]",6.31 nM,794 nM
"FC(F)c1n[nH]c(-c2nc3ncc(Cl)cn3c2-c2c[nH]cn2)n1 [Example 4, 5-[6-chloro-3-(1H-imidazol-4-yl)imidazo[1,2-a]pyrimidin-2-yl]-3-(difluoromethyl)-1H-1,2,4-triazole]",3.98 nM,63.1 nM
"Fc1cnc2nc(-c3nc(C(F)F)n[nH]3)c(-c3c[nH]cn3)n2c1 [Example 5, 3-(difluoromethyl)-5-[6-fluoro-3-(1H-imidazol-4-yl)imidazo[1,2-a]pyrimidin-2-yl]-1H-1,2,4-triazole]",2.51 nM,200 nM
"OCC(F)(F)c1ccn2c(-c3cnc[nH]3)c(-c3nc(C(F)(F)F)n[nH]3)nc2n1 [Example 6, 2,2-difluoro-2-[3-(1H-imidazol-5-yl)-2-[3-(trifluoromethyl)-1H-1,2,4-triazol-5-yl]imidazo[1,2-a]pyrimidin-7-yl]ethan-1-ol]",3.98 nM,501 nM
"FC(F)(F)c1n[nH]c(-c2nc3nc(Cl)ccn3c2-c2cnc[nH]2)n1 [Example 7, 5-[7-chloro-3-(1H-imidazol-5-yl)imidazo[1,2-a]pyrimidin-2-yl]-3-(trifluoromethyl)-1H-1,2,4-triazole, trifluoroacetic acid salt]",6.31 nM,1580 nM
"FC(F)c1ccn2c(-c3cnc[nH]3)c(-c3nc(C(F)F)n[nH]3)nc2n1 [Example 8, 3-(difluoromethyl)-5-[7-(difluoromethyl)-3-(1H-imidazol-5-yl)imidazo[1,2-a]pyrimidin-2-yl]-1H-1,2,4-triazole]",3.16 nM,200 nM
"FC(F)(F)c1n[nH]c(-c2nc3nc4c(cn3c2-c2c[nH]cn2)COC4)n1 [Example 10, 12-(1H-imidazol-4-yl)-11-[3-(trifluoromethyl)-1H-1,2,4-triazol-5-yl]-5-oxa-1,8,10-triazatricyclo[7.3.0.0^3, ^7] dodeca-2,7,9,11-tetraene, 0.2 trifluoroacetic acid salt]",6.31 nM,126 nM
"CC(O)c1ccn2c(-c3cnc[nH]3)c(-c3nc(C(F)(F)F)n[nH]3)nc2n1 (stereo not drawn) [Example 13, 1-[3-(1H-imidazol-5-yl)-2-[3-(trifluoromethyl)-1H-1,2,4-triazol-5-yl]imidazo[1,2-a]pyrimidin-7-yl]ethan-1-ol]",10 nM,1000 nM
"CC(=O)c1ccn2c(-c3cnc[nH]3)c(-c3nc(C(F)(F)F)n[nH]3)nc2n1 [Example 14, 1-[3-(1H-imidazol-5-yl)-2-[3-(trifluoromethyl)-1H-1,2,4-triazol-5-yl]imidazo[1,2-a]pyrimidin-7-yl]ethan-1-one]",10 nM,63.1 nM
"FC(F)(F)c1n[nH]c(-c2nc3ncc(CC4CCCCC4)cn3c2-c2cnc[nH]2)n1 [Example 15, 5-[6-(cyclohexylmethyl)-3-(1H-imidazol-5-yl)imidazo[1,2-a]pyrimidin-2-yl]-3-(trifluoromethyl)-1H-1,2,4-triazole, trifluoroacetic acid salt]",10 nM,> 31600 nM
"FC(F)(F)c1n[nH]c(-c2nc3ncc(C4CCCC4)cn3c2-c2cnc[nH]2)n1 [Example 16, 5-[6-cyclopentyl-3-(1H-imidazol-5-yl)imidazo[1,2-a]pyrimidin-2-yl]-3-(trifluoromethyl)-1H-1,2,4-triazole, trifluoroacetic acid salt]",3.98 nM,3160 nM
"COCC(F)(F)c1ccn2c(-c3cnc[nH]3)c(-c3nc(C(F)(F)F)n[nH]3)nc2n1 [Example 19, 5-[7-(1,1-difluoro-2-methoxyethyl)-3-(1H-imidazol-5-yl)imidazo[1,2-a]pyrimidin-2-yl]-3-(trifluoromethyl)-1H-1,2,4-triazole]",6.31 nM,398 nM
"CSc1ccn2c(-c3cnc[nH]3)c(-c3nc(C(F)(F)F)n[nH]3)nc2n1 [Example 21, 5-[3-(1H-imidazol-5-yl)-7-(methylsulfanyl)imidazo[1,2-a]pyrimidin-2-yl]-3-(trifluoromethyl)-1H-1,2,4-triazole]",5.01 nM,631 nM
"CS(=O)(=O)c1cnc2nc(-c3nc(C(F)(F)F)n[nH]3)c(-c3cnc[nH]3)n2c1 [Example 22, 5-[3-(1H-imidazol-5-yl)-6-methanesulfonylimidazo[1,2-a]pyrimidin-2-yl]-3-(trifluoromethyl)-1H-1,2,4-triazole]",25.1 nM,7940 nM
"O=C(CCCOP(=O)(O)O)OCn1cnc(-c2c(-c3nc(C(F)(F)F)nn3COC(=O)CCCOP(=O)(O)O)nc3ncccn23)c1 [Example 30, {4-oxo-4-[(5-{3-[1-({[4-(phosphonooxy)butanoyl]oxy}methyl)-1H-imidazol-4-yl]imidazo[1,2-a]pyrimidin-2-yl}-3-(trifluoromethyl)-1H-1,2,4-triazol-1-yl)methoxy]butoxy}phosphonic acid, trifluoroacetic acid salt]",316 nM,1260 nM
"O=C(O)CCOC(=O)OCn1cnc(-c2c(-c3nc(C(F)(F)F)nn3COC(=O)OCCC(=O)O)nc3ncccn23)c1 [Example 31, 3-({[(4-{2-[1-({[(2-carboxyethoxy)carbonyl]oxy}methyl)-3-(trifluoromethyl)-1H-1,2,4-triazol-5-yl]imidazo[1,2-a]pyrimidin-3-yl}-1H-imidazol-1-yl)methoxy]carbonyl}oxy)propanoic acid, trifluoroacetic acid salt]",2000 nM,5010 nM
"O=C(O)CCOC(=O)OCn1nc(C(F)(F)F)nc1-c1nc2ncccn2c1-c1cnc[nH]1 [Example 33, 3-{[({5-[3-(1H-imidazol-5-yl)imidazo[1,2-a]pyrimidin-2-yl]-3-(trifluoromethyl)-1H-1,2,4-triazol-1-yl}methoxy)carbonyl]oxy}propanoic acid, 2 trifluoroacetic acid salt]",316 nM,501 nM
"Fc1cnc2nc(-c3nc(C(F)(F)F)n[nH]3)c(-c3cn[nH]c3)n2c1 [Example 38, 5-[6-fluoro-3-(1H-pyrazol-4-yl)imidazo[1,2-a]pyrimidin-2-yl]-3-(trifluoromethyl)-1H-1,2,4-triazole]",7.94 nM,1000 nM
"FC(F)c1n[nH]c(-c2nc3ncccn3c2-c2cnc[nH]2)n1 [Example 50, 3-(difluoromethyl)-5-[3-(1H-imidazol-5-yl)imidazo[1,2-a]pyrimidin-2-yl]-1H-1,2,4-triazole]",3.16 nM,79.4 nM
"CC(C)c1ccn2c(-c3cnc[nH]3)c(-c3nc(C(F)(F)F)n[nH]3)nc2n1 [Example 55, 5-[3-(1H-imidazol-5-yl)-7-(propan-2-yl)imidazo[1,2-a]pyrimidin-2-yl]-3-(trifluoromethyl)-1H-1,2,4-triazole]",7.94 nM,1000 nM
"FC(F)(F)c1n[nH]c(-c2nc3ncc(COCCn4cc(Cl)cn4)cn3c2-c2c[nH]cn2)n1 [Example 151, 5-(6-{[2-(4-chloro-1H-pyrazol-1-yl)ethoxy]methyl}-3-(1H-imidazol-4-yl)imidazo[1,2-a]pyrimidin-2-yl)-3-(trifluoromethyl)-1H-1,2,4-triazole]",–,3980 nM
"O=C(COCc1cnc2nc(-c3nc(C(F)(F)F)n[nH]3)c(-c3c[nH]cn3)n2c1)N1CCCCC1 [Example 152, 2-{[3-(1H-imidazol-4-yl)-2-[3-(trifluoromethyl)-1H-1,2,4-triazol-5-yl]imidazo[1,2-a]pyrimidin-6-yl]methoxy}-1-(piperidin-1-yl)ethan-1-one]",–,2510 nM
"CCCOCCOCc1cnc2nc(-c3nc(C(F)(F)F)n[nH]3)c(-c3c[nH]cn3)n2c1 [Example 153, 5-[3-(1H-imidazol-4-yl)-6-[(2-propoxyethoxy)methyl]imidazo[1,2-a]pyrimidin-2-yl]-3-(trifluoromethyl)-1H-1,2,4-triazole]",–,794 nM
"Fc1cnc2nc(-c3nc(Br)n[nH]3)c(-c3c[nH]cn3)n2c1 [Example 159, 3-bromo-5-[6-fluoro-3-(1H-imidazol-4-yl)imidazo[1,2-a]pyrimidin-2-yl]-1H-1,2,4-triazole]",–,200 nM
"OCC1CN(Cc2ccn3c(-c4c[nH]cn4)c(-c4nc(C(F)(F)F)n[nH]4)nc3n2)C1 [Example 164, (1-{[3-(1H-imidazol-4-yl)-2-[3-(trifluoromethyl)-1H-1,2,4-triazol-5-yl]imidazo[1,2-a]pyrimidin-7-yl]methyl}azetidin-3-yl)methanol]",–,6310 nM
